Experimental data from patent US7745489B2, “Compositions and methods for inhibition of phospholipase A2 mediated inflammation” (The Regents of the University of California, priority 2002, dated 2010).
Values joined by “and” are separate entries in the source; they are usually repeats but may differ in a detail not shown here. Equal entries are not always repeated. “Also recorded” adds a separate entry of the source. Where two headings read alike, the source gives them in different places.

How the values were obtained:
cPLA2 = molecular target: T1, cPLA2 (Homo sapiens, UniProt P47712); assay: cPLA2 activity on TX-100/PAPC mixed micelles, inhibition by 2-oxoamides; assay type: biochemical; details: for Inhibition of cPLA2: result in words
T1 sequence (P47712 1-749): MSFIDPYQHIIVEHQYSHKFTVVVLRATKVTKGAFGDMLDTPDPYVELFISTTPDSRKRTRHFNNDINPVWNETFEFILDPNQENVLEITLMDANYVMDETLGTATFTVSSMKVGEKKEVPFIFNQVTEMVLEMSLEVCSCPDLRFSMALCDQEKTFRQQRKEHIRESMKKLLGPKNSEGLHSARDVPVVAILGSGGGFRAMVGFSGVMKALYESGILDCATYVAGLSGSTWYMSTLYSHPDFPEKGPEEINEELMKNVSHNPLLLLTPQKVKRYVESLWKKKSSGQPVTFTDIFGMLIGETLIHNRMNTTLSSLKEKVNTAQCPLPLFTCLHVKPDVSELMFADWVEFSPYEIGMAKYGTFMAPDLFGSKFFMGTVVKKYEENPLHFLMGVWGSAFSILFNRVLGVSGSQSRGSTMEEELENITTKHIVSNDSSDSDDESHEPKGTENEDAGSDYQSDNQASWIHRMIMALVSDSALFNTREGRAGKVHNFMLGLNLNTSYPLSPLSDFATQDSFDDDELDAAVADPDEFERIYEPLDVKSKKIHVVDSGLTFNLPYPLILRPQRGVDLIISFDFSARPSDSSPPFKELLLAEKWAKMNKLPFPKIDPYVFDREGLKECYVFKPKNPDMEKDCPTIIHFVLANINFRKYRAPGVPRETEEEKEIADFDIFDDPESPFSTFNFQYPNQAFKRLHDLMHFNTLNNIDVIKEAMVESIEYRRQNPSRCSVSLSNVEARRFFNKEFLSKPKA

iPLA2 = molecular target: T2, iPLA2 (Homo sapiens, UniProt O60733); assay: iPLA2 activity mixed micelle assay, inhibition by 2-oxoamides; assay type: biochemical
T2 sequence (O60733 1-806): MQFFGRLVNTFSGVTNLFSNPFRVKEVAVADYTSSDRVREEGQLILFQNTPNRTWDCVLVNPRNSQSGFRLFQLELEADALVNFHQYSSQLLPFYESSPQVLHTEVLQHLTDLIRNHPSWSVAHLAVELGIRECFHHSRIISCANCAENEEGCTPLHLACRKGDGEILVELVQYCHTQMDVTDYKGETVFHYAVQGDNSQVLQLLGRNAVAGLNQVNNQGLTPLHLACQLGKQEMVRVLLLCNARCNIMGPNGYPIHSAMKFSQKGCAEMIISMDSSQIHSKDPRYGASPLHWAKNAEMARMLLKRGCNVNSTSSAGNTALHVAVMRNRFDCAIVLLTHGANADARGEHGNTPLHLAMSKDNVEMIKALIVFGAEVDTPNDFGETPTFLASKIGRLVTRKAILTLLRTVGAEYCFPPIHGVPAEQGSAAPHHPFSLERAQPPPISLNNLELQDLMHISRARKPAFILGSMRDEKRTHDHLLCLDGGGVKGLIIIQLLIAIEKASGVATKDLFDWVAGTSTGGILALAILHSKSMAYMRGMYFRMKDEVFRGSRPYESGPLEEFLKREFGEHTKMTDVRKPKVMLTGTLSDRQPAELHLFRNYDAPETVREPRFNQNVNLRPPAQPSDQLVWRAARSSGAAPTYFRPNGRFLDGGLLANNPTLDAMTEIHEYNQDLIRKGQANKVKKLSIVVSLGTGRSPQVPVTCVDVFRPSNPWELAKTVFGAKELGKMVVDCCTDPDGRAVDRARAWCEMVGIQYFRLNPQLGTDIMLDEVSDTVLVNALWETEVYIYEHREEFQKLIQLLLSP
Text: All of the data above are provided with respect to XI(50), which is the mole fraction of inhibitor in the total substrate interface required to inhibit the enzyme by 50%. Almost all inhibitors of PLA2's partition into the phospholipid surface, because they usually have a hydrophobic nature that helps them bind to the active site of the PLA2. When these inhibitors partition into the surface, an important physical effect called surface dilution comes into play. In this case, the strength of the interaction of PLA2 and an inhibitor depends not on the bulk concentration of the inhibitor (molar units), but on the surface concentration of the inhibitor (mole fraction units).
PLA2 Activity Assays: Following homoginization and centrifugation, the spinal cord supernatants were assayed for cPLA2 or iPLA2 activity using the group specific assays developed in our laboratory (Yang et al., Biochem; 269: 278-288, 1999). Briefly the cPLA2 assay conditions were: 100 μM lipid PAPC/PIP2 (97/3) doping with 1% ^14C labeled PAPC in 400 μM triton X-100 mixed micelles, 100 mM Hepes, pH 7.5, 0.08 mM CaCl2, 0.1 mg/ml BSA and 2 mM DTT. iPLA2 assay conditions were: 100 μM DPPC doping with 1% ^14C labeled DPPC in 400 μM triton X-100 mixed micelles, 100 mM Hepes, pH 7.5, 5 mM EDTA, and 1 mM ATP. The total volume for each assay is 500 μL: 200 μL lipid, 250 μL assay buffer, 50 μL sample. In each case the amount of calcium or EDTA added was adjusted to account for the addition of EDTA in the lysis buffer to give the final concentrations listed above.
Lipid preparation: Lipid was dried under N2 and lyopholized for at least one hour to remove all traces of chloroform. Lipid was then resuspended in […] and triton X-100 and micelles were created by repeated vortexing and heating in hot water until the solution clarified. Samples were incubated with substrate for one hour at 40° C. The assay was then terminated and fatty acid extracted by the modified Dole assay. The amount of radioactive fatty acid released in the assay was determined by scintillation counting. Following analysis the data for the cPLA2 assay was adjusted for contaminating iPLA2 activity as described by Yang, et al. (Yang, et al., Anal. Biochem. 269: 278-288 (1999).

[1] = tested on: carrageenan-induced paw edema; assay: Rat carrageenan-induced paw edema assay, ip, acute inflammation; assay type: in vivo; details: after 3.5 h; for ED50: Rattus norvegicus, carrageenin paw edema test, ip
Protocol: The experiments were conducted on Fisher 344 female rats weighing 200-260 g. Acute anti-inflammatory activity was measured after 3.5 h by reduction of rat paw carrageenan edema, induced by injection of 0.1 mL carrageenan 2% (K100, commercially available) in sterilized saline intradermally into the right footpad. The examined compounds were administered intraperitoneally (ip) simultaneously. Control animals accepted only vehicle.

acetic acid writhing = assay: Acetic acid writhing test, analgesic activity; assay type: in vivo, rat
Protocol: The acetic acid writhing test was used to assess the analgesic activity in rats (reference drug sodium acetylsalicylate, at 1 mmol/kg, 93.4%). The inhibitors were given ip and 30 min later 1 mL/100 g body weight of 0.6% acetic acid was given ip.

P388D1 cells = assay: PGE2 release from stimulated P388D1 macrophages; assay type: cell-based, murine; details: for inhibition at 50 µM / IC50: Mus musculus; for inhibition at 50 µM: LPS 1 hour then PAF 15 min, maximal dosage tested 50 μM; for IC50: LPS 18 hr, inhibitor added 30 min prior to stimulation; for Block of PGE2 release: long-term LPS stimulation, 50 μM inhibitor, result in words
Protocol: cPLA2 and iPLA2 are expressed in macrophage cells. It was therefore of interest to determine if the PLA2 inhibitors of the invention acted on either or both of cPLA2 and iPLA2 in macrophages. To that end, P388D1 murine macrophages were maintained at 37° C. in a humidified 10% CO2 atmosphere. Cells were grown in Iscove's Modified Dulbecco's Medium (IMDM with 10% fetal calf serum (HyClone Labs, Provo Utah), 100 units/mL penicillin and 100 μg/mL streptomycin (Invitrogen, Carlsbad Calif.). Cells were routinely passaged every 2-3 days when the cells reached 75-80% confluence. Cells used for stimulation were plated at a density of 10^6 cells per well in standard 12 well tissue culture plates and were allowed to adhere overnight.
Macrophages were stimulated by treating P338D1 cells with either lipopolysaccharide (LPS) alone or LPS combined with platelet activating factor (PAF). Briefly, cells were washed twice with starvation media (IMDM containing 0.2% fetal calf serum, 100 units/mL penicillin and 100 μg/mL streptomycin) and then incubated with 1 mL of starvation media for one hour. Cells were then exposed to either 100 ng/mL LPS for 18 hours or 200 ng/mL LPS for one hour. Cells treated with 200 ng/mL LPS were then exposed to 100 nM PAF for 15 minutes. At the end of the stimulation, the media was removed from the cells, cleared of cellular debris by centrifugation and analyzed for prostaglandin E2 (PGE2) levels by enzyme-linked immunoassay (Cayman Chemical, Ann Arbor Mich.).
Inhibitor compounds were dissolved in DMSO and diluted into starvation media prior to addition to cells; the DMSO concentration was kept below 0.5% v/v in all studies. All inhibitors were added 30 minutes prior to stimulation.

[2] = tested on: formalin induced flinching; assay: Formalin induced flinching; assay type: in vivo, rat; details: intrathecal pretreatment 10 min; result in words
spontaneous movement = details: rat, in vivo
[3] = mixed micelles TX-100 400 μM, PAPC 97 μM, PIP2 3 μM (0.6 mole %)
[4] = Table 3, at 0.020 mole fraction

With `CCC(=O)C(=O)NCCCC(=O)OC` [OA19] the “Inhibition of cPLA2” value (cPLA2) was “no inhibitory activity; also recorded: no measurable inhibition” and the “XI(50) (mole fraction)” value (iPLA2; Table 3) was 0.0158 ± .0009 mole fraction.
With `COC(=O)CCCNC(=O)C(=O)CCCCc1ccccc1` [OA20] the “Inhibition of cPLA2” value (cPLA2) was “do not inhibit” and the “Highest Conc. (mole fraction) w/ % inhibition” value (iPLA2; Table 3, at 0.091 mole fraction) was 0.091: 55% ± 4%.
In the case of `CCCCCCCCCCC(=O)C(=O)N[C@@H](CCCC)CCC(=O)O` [OA4, (4S)-4-[(2-Oxododecanoyl)amino]octanoic acid], the “XI(50) (mole fraction)” value (cPLA2; Table 2, iPLA2) is reported as 0.009 ± 0.004 mole fraction, the “XI(50)” value (cPLA2; [3]) is reported as 0.009±0.004 mole fraction and 0.009 mole fraction and the “XI(50)” value (cPLA2; mixed micelles TX-100 3 mM, PAPC 1 mM, no PIP2 present) is reported as 0.0027±0.0012 mole fraction. The “Inhibition of cPLA2” value (cPLA2) was “quite potent”, the ED50 [1] was 100 µmol/kg and the Analgesic activity (acetic acid writhing; ip dose of 0.1 mmol/kg) was 63%. For the same molecule, the inhibition at 50 µM (P388D1 cells) was roughly 60%, the IC50 (P388D1 cells) was 5.8 µM and the “Block of PGE2 release” value (P388D1 cells) was “completely block”. For the same molecule, the melting point was 50 to 52 °C.
For `CCC/C=C\CCNC(=O)C(=O)CC` [OA24], the “Highest Conc. (mole fraction) w/ % inhibition” value (iPLA2; [4]) was 0.020: 60% ± 6%.
For `CCNC(=O)OC[C@H](CCC(=O)OC)NC(=O)C(=O)CC` [OA26], the “XI(50) (mole fraction)” value (cPLA2; Table 4, cPLA2) was 0.028 ± 0.017 mole fraction, the “Inhibition of cPLA2” value (cPLA2) was “does” and the “XI(50) (mole fraction)” value (iPLA2; Table 4) was 0.018 ± 0.002 mole fraction.
In the case of `COc1ccc2c(c1)c(CC(=O)O)c(C)n2C(=O)c1ccc(Cl)cc1` [indomethacin, reference compound], the “% inhibition of carrageenan paw edema” value ([1]; reference drug at 0.011 mmol/kg) is reported as 47%.
For `CC(=O)Oc1ccccc1C(=O)[O-].[Na+]` [sodium acetylsalicylate, reference compound], the Analgesic activity (acetic acid writhing; reference drug at 1 mmol/kg) was 93.4%.
In the case of `CCC(=O)C(=O)N[C@H]1CCC(=O)OC1` [OA25], the “Highest Conc. (mole fraction) w/ % inhibition” value (cPLA2; Table 4, cPLA2, at 0.091 mole fraction) is reported as “cPLA2: 0.091: 41% iPLA2: N/A”, the “Inhibition of cPLA2” value (cPLA2) is reported as “fairly poor inhibitor” and the “XI(50) (mole fraction)” value (iPLA2; Table 4) is reported as “C PLA2: N.D. I PLA2: 0.0142 ± 0.0004 mole fraction”.
In the case of `CCC(=O)C(N)=O` [OA21], the “Highest Conc. (mole fraction) w/ % inhibition” value (iPLA2; [4]) is reported as 0.020: 38% ± 6%.
In the case of `O=C1O/C(=C/Br)CCC1c1cccc2ccccc12` (stereo not shown) [BEL, bromoenol lactone], the “Effect on formalin induced flinching” value [2] is reported as “suppression”, the “Effect on spontaneous movement / normal motor function” value (spontaneous movement) is reported as “did have such an effect” and the “Effect on spontaneous movement / normal motor function” value (spontaneous movement; 60 min) is reported as “suppressed spontaneous movement”.
With `CCCCCCCCCCOC[C@@H](CCC(=O)O)NC(=O)C(=O)CCCCCCCCCC` [OA11, (4R)-5-(Decyloxy)-4-[(2-oxododecanoyl)amino]pentanoic Acid] the “XI(50) (mole fraction)” value (cPLA2; Table 2, iPLA2) was 0.047 ± 0.006 mole fraction and the “XI(50)” value (cPLA2; [3]) was 0.047±0.006 mole fraction.
With `CCCCCCC(=O)C(=O)N[C@H](CCC(=O)O)Cc1ccccc1` [OA17, (4R)-4-(2-Oxo-octanoylamino)-5-phenyl-pentanoic Acid] the “Highest Conc. (mole fraction) w/ % inhibition” value (cPLA2; Table 2, at 0.091 mole fraction, iPLA2) was 0.091; 24%.
For `CCNC(=O)C(=O)CC` [OA22], the “Highest Conc. (mole fraction) w/ % inhibition” value (iPLA2; [4]) was 0.020: 31% ± 6%.
With `CCC/C=C\CCNC(=O)C(=O)CC` [OA23] the “Highest Conc. (mole fraction) w/ % inhibition” value (iPLA2; [4]) was 0.020: 43% ± 4%.
With `CCNC(=O)C(=O)CC` [OA8] the “Highest Conc. (mole fraction) w/ % inhibition” value (cPLA2; Table 2, at 0.02 mole fraction, iPLA2) was 0.02; 22% ± 7%.
In the case of `CCCCCCCCCCCCCCC(=O)C(=O)NCCCC(=O)O` [OA1, 4-[(2-oxohexadecanoyl)amino]butanoic acid], the “XI(50) (mole fraction)” value (cPLA2; Table 2, iPLA2) is reported as 0.017 ± 0.009 mole fraction, the “XI(50)” value (cPLA2; [3]) is reported as 0.017±0.009 mole fraction and the ED50 [1] is reported as 10 µmol/kg. For the same molecule, the Analgesic activity (acetic acid writhing; ip dose of 0.01 mmol/kg) was 92.7%, the inhibition at 50 µM (P388D1 cells) was roughly 60% and the IC50 (P388D1 cells) was 7.8 µM. The “Block of PGE2 release” value (P388D1 cells) was “completely block”.
